Read-outs that look alike come from different tables or passages of the source.
Columns and labels:
HeLaS3 cells = experiment: Growth Inhibitory Effect Against HeLaS3 cells; assay type: cell-based
Protocol: HeLaS3 cells were suspended in MEM medium containing 10% fetal calf serum and 2 mM glutamine to a concentration of 2.67×10^4 cells/ml. The cell suspension thus prepared was put into wells of a 24-well culture plate in an amount of 0.75 ml per well. After the cells were incubated in a CO2 incubator overnight at 37° C., Compound (I) which had been appropriately diluted with a culture medium was added to each well in an amount of 0.25 ml.
The cells were further incubated in the CO2 incubator for 72 hours, and the culture supernatant was removed. Then, the cells were dispersed in a solution of trypsin and EDTA, and recovered. The number of the cells was counted using a cell counter. The concentration of Compound (I) at which the growth of the cells is inhibited by 50% was calculated by comparing the number of untreated cells with the number of the cells treated with Compound (I) at known concentrations, and the value was defined as IC50.

ddY-strain male mice = experiment: Acute toxicity (minimum lethal dose); assay type: in vivo; conditions: intravenous, mortality at 14 days after administration
Protocol: Compound (I) was intravenously administered to ddY-strain male mice each weighing 20±1 g. MLD (minimum lethal dose) was determined by observing the mortality at 14 days after administration.

Sarcoma 180 tumor = experiment: Therapeutic Effect on Sarcoma 180 Tumor; assay type: in vivo, male ddY-strain mice; conditions: determined seven days after implantation; for response vs control in vivo at 0.5 mg/kg: read-out: T/C (average tumor volume treated / control), dose 0.50 mg/kg, intravenous, one day after implantation
Protocol: Five male ddY-strain mice each weighing 18-20 g were used for each group as test animals, and 5×10^5 Sarcoma 180 tumor cells were implantedat the axilla subcutaneously. One day after the implantation, 0.2 ml of a physiological saline containing Compound (I) at the concentration shown in Table 3 was intravenously administered to each mouse. T/C [T: average tumor volume (mm^3) of the group treated with the test compound, C: average tumor volume (mm^3) of the control group (to which 0.2 ml of a physiological saline was intravenously administered)] was determined seven days after the implantation.

[1] = Homo sapiens, HeLa S3, 72 h, read-out: IC50, growth inhibition of HeLaS3 cells, 72 hours, 37° C., cell counter
[2] = Mus musculus, Sarcoma-180, iv, 168 h, read-out: T/C (average tumor volume treated / control), dose 4.0 mg/kg, intravenous, one day after implantation
[3] = Homo sapiens, HeLa S3, 72 hours, 37° C., cell counter, read-out: IC50, growth inhibition of HeLaS3 cells
[4] = Mus musculus, Sarcoma-180, iv, 168 h, read-out: T/C (average tumor volume treated / control), dose 2.0 mg/kg, intravenous, one day after implantation
[5] = Mus musculus, Sarcoma-180, 168 h, dose 2.0 mg/kg, intravenous, one day after implantation, read-out: T/C (average tumor volume treated / control)
[6] = Mus musculus, Sarcoma-180, iv, 168 h
[7] = Mus musculus, Sarcoma-180, 168 h, dose 4.0 mg/kg, intravenous, one day after implantation, read-out: T/C (average tumor volume treated / control)
[8] = Mus musculus, Sarcoma-180, iv, 168 h, read-out: T/C (average tumor volume treated / control), dose 8.0 mg/kg, intravenous, one day after implantation
[9] = Mus musculus, Sarcoma-180, 168 h, dose 8.0 mg/kg, intravenous, one day after implantation, read-out: T/C (average tumor volume treated / control)
[10] = read-out: IC50, growth inhibition of HeLaS3 cells, 72 hours, 37° C., cell counter

Compound | IC50 (HeLaS3 cells; [1]) [nM] | MLD (minimum lethal dose) (ddY-strain male mice) [mg/kg] | IC50 (HeLaS3 cells; [3]) [nM] | other results
COC(=O)c1c(C)[nH]c2c(OC(=O)CN3CCN(C)CC3)cc3c(c12)C(CBr)CN3C(=O)/C=C/c1ccc(OC)cc1 (stereo not shown) [Compound 39] | 0.36 | 4.0 | – | –
COC(=O)c1c(C)[nH]c2c(OC(C)=O)cc3c(c12)C(CBr)CN3C(=O)/C=C/c1ccc(OC)cc1 (stereo not shown) [Compound 14] | 0.31 | 2.0 | – | response vs control in vivo at 4 mg/kg (Sarcoma 180 tumor; [2]): 22%
COC(=O)c1c(C)[nH]c2c(OC(=O)NN3CCOCC3)cc3c(c12)C(CBr)CN3C(=O)/C=C/c1ccc(OC)cc1 (stereo not shown) [Compound 20] | – | – | 6.7 | –
COC(=O)c1c(C)[nH]c2c(OC(=O)c3ccc(-n4cccc4)cc3)cc3c(c12)C(CBr)CN3C(=O)/C=C/c1ccc(OC)cc1 (stereo not shown) [Compound 26] | 1.7 | 2.0 | – | response vs control in vivo at 2 mg/kg (Sarcoma 180 tumor; [4]): 15%
COC(=O)c1c(C)[nH]c2c(OC(=O)c3cccnc3)cc3c(c12)C(CBr)CN3C(=O)/C=C/c1ccc(OC)cc1 (stereo not shown) [Compound 16] | – | – | 0.4 | response vs control in vivo at 2 mg/kg (Sarcoma 180 tumor; [5]): 33%
COC(=O)c1c(C)[nH]c2c(OC(=O)c3ccc(CNC(=O)OC(C)(C)C)cc3)cc3c(c12)C(CBr)CN3C(=O)/C=C/c1ccc(OC)cc1 (stereo not shown) [Compound 34] | – | – | 0.52 | response vs control in vivo at 2 mg/kg (Sarcoma 180 tumor; [5]): 28%
COC(=O)c1c(C)[nH]c2c(OC(=O)NN(C)C)cc3c(c12)C(CBr)CN3C(=O)/C=C/c1ccc(OC)cc1 (stereo not shown) [Compound 29] | – | 2.0 | 0.43 | response vs control in vivo at 2 mg/kg (Sarcoma 180 tumor; [5]): 18%
COC(=O)c1c(C)[nH]c2c(OC(=O)SC)cc3c(c12)C(CBr)CN3C(=O)/C=C/c1ccc(OC)cc1 (stereo not shown) [Compound 15] | – | – | 0.43 | response vs control in vivo at 1 mg/kg (Sarcoma 180 tumor; Mus musculus, Sarcoma-180, 168 h, dose 1.0 mg/kg, intravenous, one day after implantation, read-out: T/C (average tumor volume treated / control)): 36%
COC(=O)c1c(C)[nH]c2c(OC(=O)Oc3ccccc3)cc3c(c12)C(CBr)CN3C(=O)c1cc2cc(OC)c(OC)c(OC)c2[nH]1 (stereo not shown) [Compound 8] | 0.051 | 0.50 | – | response vs control in vivo at 0.5 mg/kg (Sarcoma 180 tumor; [6]): 9%
COC(=O)c1c(C)[nH]c2c(OC(=O)N(C)N)cc3c(c12)C(CBr)CN3C(=O)/C=C/c1ccc(OC)cc1 (stereo not shown) [Compound 30] | 0.94 | 2.0 | – | response vs control in vivo at 2 mg/kg (Sarcoma 180 tumor; [4]): 22%
COC(=O)c1c(C)[nH]c2c(OC(=O)NC(Cc3ccccc3)C(=O)O)cc3c(c12)C(CBr)CN3C(=O)c1cc2cc(OC)c(OC)c(OC)c2[nH]1 (stereo not shown) [Compound 11] | – | > 4.0 | 0.17 | response vs control in vivo at 4 mg/kg (Sarcoma 180 tumor; [7]): 7%
COC(=O)c1c(C)[nH]c2c(OC(=O)NN3CCN(C)CC3)cc3c(c12)C(CBr)CN3C(=O)/C=C/c1ccc(OC)cc1 (stereo not shown) [Compound 18] | 0.54 | – | – | response vs control in vivo at 8 mg/kg (Sarcoma 180 tumor; [8]): 18%
COC(=O)c1c(C)[nH]c2c(OC(=O)c3cccc(N(C)C)c3)cc3c(c12)C(CBr)CN3C(=O)/C=C/c1ccc(OC)cc1 (stereo not shown) [Compound 24] | – | – | 0.43 | response vs control in vivo at 2 mg/kg (Sarcoma 180 tumor; [5]): 31%
COC(=O)c1c(C)[nH]c2c(OC(=O)c3ccc(N)c(N)c3)cc3c(c12)C(CBr)CN3C(=O)/C=C/c1ccc(OC)cc1 (stereo not shown) [Compound 22] | – | – | 2.7 | –
COC(=O)c1c(C)[nH]c2c(OC)cc3c(c12)C(CBr)CN3C(=O)c1cc2cc(OC)c(OC)c(OC)c2[nH]1 (stereo not shown) [Compound 2] | – | – | 6.3 | response vs control in vivo at 8 mg/kg (Sarcoma 180 tumor; [9]): 27%
COC(=O)c1c(C)[nH]c2c(OC(=O)c3ccc(CN)cc3)cc3c(c12)C(CBr)CN3C(=O)/C=C/c1ccc(OC)cc1 (stereo not shown) [Compound 36] | – | – | 1 | response vs control in vivo at 4 mg/kg (Sarcoma 180 tumor; [7]): 35%
CCN(CC)c1ccc(C(=O)Oc2cc3c(c4c(C(=O)OC)c(C)[nH]c24)C(CBr)CN3C(=O)/C=C/c2ccc(OC)cc2)cc1 (stereo not shown) [Compound 25] | 13 | 2.0 | – | response vs control in vivo at 2 mg/kg (Sarcoma 180 tumor; [4]): 14%
COC(=O)Oc1cc2c(c3c(C(=O)OC)c(C)[nH]c13)C(CBr)CN2C(=O)c1cc2cc(OC)c(OC)c(OC)c2[nH]1 (stereo not shown) [Compound 7] | 0.082 | 0.50 | – | response vs control in vivo at 0.5 mg/kg (Sarcoma 180 tumor; [6]): 10%
COC(=O)c1c(C)[nH]c2c(OC(C)=O)cc3c(c12)C(CBr)CN3C(=O)c1cc2cc(OC)c(OC)c(OC)c2[nH]1 (stereo not shown) [Compound 6] | 0.13 | 0.25 | – | response vs control in vivo at 0.5 mg/kg (Sarcoma 180 tumor; [6]): 18%
COC(=O)c1c(C)[nH]c2c(OS(C)(=O)=O)cc3c(c12)C(CBr)CN3C(=O)c1cc2cc(OC)c(OC)c(OC)c2[nH]1 (stereo not shown) [Compound 4] | – | – | 4 | response vs control in vivo at 16 mg/kg (Sarcoma 180 tumor; Mus musculus, Sarcoma-180, 168 h, dose 16 mg/kg, intravenous, one day after implantation, read-out: T/C (average tumor volume treated / control)): 20%
COC(=O)c1c(C)[nH]c2c(OCc3ccccc3)cc3c(c12)C(CBr)CN3C(=O)c1cc2cc(OC)c(OC)c(OC)c2[nH]1 (stereo not shown) [Compound 1] | – | – | 5.1 | response vs control in vivo at 8 mg/kg (Sarcoma 180 tumor; [9]): 19%
COC(=O)c1c(C)[nH]c2c(OC(=O)NN3CCN(C)CC3)cc3c(c12)C(CBr)CN3C(=O)/C=C/c1ccc(OC)cc1 (stereo not shown) [Compound 19] | – | > 8.0 | – | IC50 (HeLaS3 cells; [10]): 0.53 nM; response vs control in vivo at 4 mg/kg (Sarcoma 180 tumor; [2]): 26%
COC(=O)c1c(C)[nH]c2c(OC(=O)NN3CCC(N4CCCCC4)CC3)cc3c(c12)C(CBr)CN3C(=O)/C=C/c1ccc(OC)cc1 (stereo not shown) [Compound 32] | 0.8 | > 8.0 | – | response vs control in vivo at 8 mg/kg (Sarcoma 180 tumor; [8]): 10%
COC(=O)c1c(C)[nH]c2c(OC(=O)CN3CCC(N4CCCCC4)CC3)cc3c(c12)C(CBr)CN3C(=O)/C=C/c1ccc(OC)cc1 (stereo not shown) [Compound 40] | 0.29 | 2.0 | – | –
COC(=O)c1c(C)[nH]c2c(OC(=O)NCC(=O)O)cc3c(c12)C(CBr)CN3C(=O)c1cc2cc(OC)c(OC)c(OC)c2[nH]1 (stereo not shown) [Compound 10] | – | > 4.0 | 0.23 | response vs control in vivo at 4 mg/kg (Sarcoma 180 tumor; [7]): 10%
COC(=O)c1c(C)[nH]c2c(OC(=O)NN3CCN(C)CC3)cc3c(c12)C(CBr)CN3C(=O)/C=C/c1ccc(OC)cc1 (stereo not shown) [Compound 37] | – | > 8.0 | – | IC50 (HeLaS3 cells; [10]): 0.91 nM; T/C (average tumor volume treated / control) (Sarcoma 180 tumor; dose 8.0 mg/kg, intravenous, one day after implantation, 8 mg/kg): 0.27
CNN(C)C(=O)Oc1cc2c(c3c(C(=O)OC)c(C)[nH]c13)C(CBr)CN2C(=O)/C=C/c1ccc(OC)cc1 (stereo not shown) [Compound 38] | 1.5 | 4.0 | – | response vs control in vivo at 4 mg/kg (Sarcoma 180 tumor; [2]): 14%
COC(=O)c1c(C)[nH]c2c(OC(=O)CSCC(=O)O)cc3c(c12)C(CBr)CN3C(=O)/C=C/c1ccc(OC)cc1 (stereo not shown) [Compound 33] | 0.33 | 2.0 | – | response vs control in vivo at 2 mg/kg (Sarcoma 180 tumor; [4]): 17%
COC(=O)c1c(C)[nH]c2c(OC(=O)c3nccnc3N)cc3c(c12)C(CBr)CN3C(=O)/C=C/c1ccc(OC)cc1 (stereo not shown) [Compound 21] | – | – | 0.38 | –

Reference: patent US5641780A, “Pyrrolo-indole derivatives” (priority 1994, dated 1997)
